Measurements reported in US20240238228A1, “COMPOSITIONS AND METHODS FOR TREATING ALLERGIES AND INFLAMMATORY CONDITIONS” (UNIVERSITY OF PITTSBURGH-OF THE COMMONWEALTH SYSTEM OF …, priority 2021, published 2024).

Key:
Format in all cases: cell-based, murine
calpain = assay: Calpain activity in cell-free supernatants of activated BMMCs
Experimental: Calpain activity was detected from cell-free supernatants using the Calpain-Glo Protease Assay (Promega). Supernatants were incubated with substrate for 10 min prior to luminescent detection. In some experiments, glyburide or vehicle (0.1% DMSO) were added to cells 10 min prior to Ag. ELISA kits from eBioscience (IL-13), BioLegend, (TNF and IL-10) or RayBiotech (NKA) and used in accord with the manufacturer's recommendations.

BMMCs [1] = assay: IgE+Ag-activated BMMCs: cytokine release (ELISA) and RNA (RT-PCR)
Experimental: Mast cells were differentiated from murine bone marrow as has been described. In brief, marrow was expunged from the femurs and tibias of female mice. Cultures were maintained in complete MC/9 medium containing recombinant murine IL-3 (25 ng/mL, Peprotech) for 4-6 weeks prior to use. Peritoneal MCs (PMCs) were expanded from peritoneal washes with MC/9 medium supplemented with IL-3 (25 ng/mL) and SCF (Peprotech, 10 ng/mL) for 21 days. Purity of BMMCs and PMCs was confirmed to be greater than 95% (FIG. 8A). To initiate signaling via the FcεRI, MCs were loaded with IgE (1.0 μg/ml, clone SPE-7, Sigma) for a minimum of 1 h then crosslinked with dinitrophenyl-human serum albumin (DNP-HSA, 100 ng/mL or as indicated). NKA (either LifeTein (Summerset, NJ) or Phoenix Pharmaceuticals (Burlingham, CA)) stock solutions were prepared in tissue culture grade water (100 μM) and stored at -20° C. for a maximum of 30 days. Glyburide (Cayman Chemical) was prepared in DMSO then diluted in PBS. Calpain activity was detected from cell-free supernatants using the Calpain-Glo Protease Assay (Promega). Supernatants were incubated with substrate for 10 min prior to luminescent detection. In some experiments, glyburide or vehicle (0.1% DMSO) were added to cells 10 min prior to Ag. ELISA kits from eBioscience (IL-13), BioLegend, (TNF and IL-10) or RayBiotech (NKA) and used in accord with the manufacturer's recommendations. […] Total RNA was isolated from either MCs or murine ear tissue 3 h hours after NKA injection. Tissue was homogenized in Navy RINO tubes (Next Advance) in a Bullet Blender Storm (Next Advance). RNA was extracted per standard methods with Trizol (Invitrogen). cDNA was reversed transcribed with the Quantitech Reverse Transcription Kit (Qiagen). PCR products were amplified with Fast SybrGreen (ABI) on a StepOne Plus Cycler ([…]) using the following primers: TNF […] NO: 5), TNF […] NO: 6); IL13 […] NO: 7), IL13 […] NO: 8); IL10 […] NO: 9); IL10 […] NO: 10); Bactin […] NO: 11); Bactin […] NO: 12). Data are presented as 2^-ΔΔCT using f-actin as the housekeeping gene and normalizing to either untreated cells or naïve control mice.

ABCA1 [2] = assay: Surface ABCA1 expression on activated BMMCs (flow cytometry); settings: 30 minutes after IgE-initiated activation; NKA 1000 nM
Experimental: (§1) MCs were collected and washed with PBS containing 0.5% BSA and 0.1% sodium azide. Non-specific binding was inhibited using FcBlock (PBS with 2.0% goat serum and 0.25 mg/mL anti-CD16/32 (clone 2.4G2, BD Biosciences). Surface staining was done with anti-CD117 eFluor450 (clone 2B8, ThermoFisher), anti-FcεRI FITC (clone MAR-1, ThermoFisher) and anti-ABCA1 Alexa Fluor 647 (clone 5A1-1422, BioRad). Cells were washed with Wash Buffer (PBS with 0.5% BSA and 0.1% sodium azide). To detect differences in granulated proteins at the cell surface, IgE-loaded MCs were activated with DNP-HSA with or without NKA in Tyrode's Buffer for 30 min, washed with Wash Buffer then stained with Avidin Alexa Fluor488 (Invitrogen, Av488, 0.8 μg/5×10^5 cells) and anti-LAMP-1 PE (clone eBio 1D48, ThermoFisher). Data were acquired on either a LSRII or a Fortessa (BD BioSciences). Analysis was performed with FlowJo v10.4 (BD Biosciences).

BMMCs [3] = assay: MS/MS shotgun proteomics on BMMC releasate
Experimental: BMMCs (4×10^6) were activated in Tyrode's Buffer without BSA (500 μl) for 1 hour. Protease Inhibitor Cocktail (Sigma, containing aprotinin, bestatin, E-64, leupeptin and pepstatin A) was added to cell free supernatants. Supernatants were concentrated using Amicon Ultra Centrifugal Filters-3K (EID Millipore). Protein concentrations were quantified with the BCA Protein Assay Kit (ThermoFisher). Tryptic peptides were generated with the filter-aided sample preparation method, desalted with C18 spin columns and dried in aspeedvac. Peptides were reconstituted in 0.5% formic acid in 96:4 water:acetonitrile and resolved with liquid chromatography tandem mass spectrometry with a system composed of a Waters nanoACQUITY UPLC in-line with a Q-Exactive mass spectrometer (ThermoFisher). Solvent A (0.1% formic acid in water, Burdick & Jackson) and solvent B (0.1% formic acid in acetonitrile, Burdick & Jackson) were used as the mobile phase. Peptides were then eluted from a capillary column (100 μm inner diameter×100 mm long; ACQUITY UPLC M-Class Peptide BEH C18 Column, 1.7-μm particle size, 300 Å (Waters), and resolved using a 100-min gradient at a flow rate of 0.9 μL/min (4-33% B for 90 min, 33-80% B for 2 min, constant at 80% B for 6 min, and then 80-0% B for 2 min to equilibrate the column). Data were collected in positive ionization mode. PEAKSX software was used to sequence and identify peptides in each sample using a decoy search at a 1.0% false discovery rate using the UniProt murine database. Label-free quantitation was performed using the quantitative module in the PEAKSX software. The MS proteomics data have been deposited to the ProteomeXchange Consortium via the PRIDE partner repository with the dataset identifier PXD021377. Pathway analysis for expressed proteins was done using the Panther Classification System.

ABCA1 [4] = assay: Surface ABCA1 expression on activated PMCs (flow cytometry); settings: 30 minutes after IgE-initiated activation; NKA 1000 nM
Experimental: as §1

[5] = IL-10 KO BMMCs (absence of autocrine IL-10)
[6] = overnight activation with IgE+Ag in the presence of NKA

Compound	calpain activity (calpain; increasing concentrations of glyburide 10 min prior to activation, supernatants 30 min after activation)	NKA-mediated inhibition with added glyburide (BMMCs [1]; glyburide and NKA (1000 nM), BMMCs or PMCs, 20-24 h)	detectible levels of IL-10 (BMMCs [1]; glyburide, 20-24 h in culture)	levels of IL-13 (BMMCs [1]; glyburide, 20-24 h in culture)	levels of TNF (BMMCs [1]; glyburide, 20-24 h in culture)	extracellular calpain activity (calpain; IgE+Ag with or without NKA for 60 min)	ABCA1 detected on the cell surface (ABCA1 [2])	IL10 RNA (BMMCs [1]; 60 min after activation)	IL13 transcription (BMMCs [1]; 60 min after activation)	TNF transcription (BMMCs [1]; 60 min after activation)	IL-13 release (BMMCs [1]; [5])	TNF release (BMMCs [1]; [5])	IL-13 release (BMMCs [1]; [6])	TNF release (BMMCs [1]; [6])	IL-10 protein in supernatants (BMMCs [1]; overnight culture with NKA)	release of proteases β-hexosaminidase, MC carboxypeptidase, cathepsin D and chymase (BMMCs [3])	release of proteins associated with metabolism and cellular function pathways (pathway analysis) (BMMCs [3])	number of proteins upregulated by NKA (BMMCs [3]; BMMCs activated 60 minutes)	catalytic subunit of calpain 1 in releasate (BMMCs [3]; BMMCs activated in the presence of NKA)	ABCA1 detected on the cell surface (ABCA1 [4])
COc1ccc(Cl)cc1C(=O)NCCc1ccc(S(=O)(=O)NC(=O)NC2CCCCC2)cc1 [glyburide, reference compound]	reduced	did not further increase	increased	decreased	decreased	–	–	–	–	–	–	–	–	–	–	–	–	–	–	–
Neurokinin A [NKA]	–	–	–	–	–	significantly downregulated	reduced the level of ABCA1	increased	inhibited	inhibited	did not inhibit	did not inhibit	inhibited	inhibited	significant increase	unchanged	inhibited	94	not detected	reduced the level of ABCA1
